From patent US10422007B2, “Markers associated with Wnt inhibitors” (Novartis AG, priority 2013, dated 2019)

Experiments:
[1] = tested on: HNSCC cell lines; assay: Cancer cell line profiling with AXIN2 mRNA expression as readout (TaqMan); type: cell-based, human
Procedure: (§1) To identify human cancer cell lines that respond to porcupine inhibition, we profiled over 300 cell lines using the mRNA expression level of AXIN2 as readout. All cell lines were cultured in a humidified incubator at 37° C. with 5% CO2. HN30 cells (Wayne State University) and UMSCC cells (University of Michigan) are derived from human head neck squamous cell carcinoma (HNSCC) patient tumor samples. Total RNA or DNA was isolated using the Qiagen RNeasy and DNeasy blood and tissue kit, according to the manufacturer's instruction, respectively. Briefly, cells were disrupted by adding Buffer RLT and homogenized using QlAshredder spin columns. After one volume of 70% ethanol was added to the homogenized lysate and thoroughly mixed, the samples were transferred to RNeasy spin column. The flow-through was discarded after centrifuge. […]
(§2) For this a two-Step TaqMan RT-PCR analysis was performed on a PTC-200 peltier thermal cycler (MJ Research) and an ABI PRISM 7900HT Sequence Detection system (Applied Biosystems). […] The PCR cycle is as following: 95° C. for 10 min and 40 cycles of tandem incubation at 95° C. for 15 sec and 60° C. for 1 min. mRNA expression levels for the target genes were normalized to GAPDH mRNA levels and data were analyzed using SDS 2.0 software (Applied Biosystems) to calculate relative RNA quantities. […]

[2] = tested on: LRP6 phosphorylation; assay: Wnt dependent phosphorylation of LRP6 in autocrine L-Wnt3A cells; type: cell-based, mouse
Description: (§3) The secreted Wnts subsequently function on Wnt receiving cells that leads to phosphorylation of the Wnt […] LRP6. […] PORCN was reported to affect pan-Wnt post-translational palmitoylation^17-18.

[3] = tested on: HN30 tumors; assay: Pharmacodynamic markers in HN30 mouse xenograft tumors; type: in vivo
Procedure: AXIN2 mRNA and pLRP6 levels (determined as in Example 3) were utilized as pharmacodynamic markers to link the observed anti-tumor activity in the HN30 mouse xenograft model. […] A time delay was observed between the peak drug concentration (at 1 hour) and the maximum AXIN2 mRNA inhibition (at 10 hours). […] This pharmacokinetic (PK), PD, and efficacy relationship explains that the sustained pathway inhibition is not required for inducing tumor regression in this HN30 xenograft model, which may provide a key differentiation factor between tumors and normal tissues to achieve a therapeutic window.
For this a two-Step TaqMan RT-PCR analysis was performed on a PTC-200 peltier thermal cycler (MJ Research) and an ABI PRISM 7900HT Sequence Detection system (Applied Biosystems). Firstly, cDNA was synthesized using a High-Capacity cDNA Archive kit (Applied Biosystems) according to the manufacturer's instructions. Briefly, the RT reaction was prepared by mixing non-enzymatic, enzymatic components of the High-Capacity cDNA Archive kit and isolated RNA samples, followed with tandem incubation at 25° C. for 10 min and 37° C. for 120 min using a thermal cycler. Secondly, TaqMan analyses were performed using TaqMan Universal Master mix (Applied Biosystems) and AXIN2 and GAPDH probes (Applied Biosystems) according to the manufacturer's instructions. Briefly, the PCR reaction was prepared by mixing Universal Master mix, TaqMan probes and synthesized cDNA samples. The PCR cycle is as following: 95° C. for 10 min and 40 cycles of tandem incubation at 95° C. for 15 sec and 60° C. for 1 min. mRNA expression levels for the target genes were normalized to GAPDH mRNA levels and data were analyzed using SDS 2.0 software (Applied Biosystems) to calculate relative RNA quantities. Curve fitting was performed using Prism.
For GeneCard analysis, 96-well TaqMan array gene card was used according to the manufacturer's instruction. The gene card assays were run on ABI 7900HT Real-Time PCR System (Applied Biosystems) and analyzed with the ΔΔCt method.

[4] = tested on: SNU1076 xenograft; assay: SNU1076 xenograft model in mice; type: in vivo, mouse; conditions: 5 mg/kg
Description: DTX3L (Deltex 3-like, also called BBAP, B-lymphoma- and BAL-associated protein) heterozygous nonsense mutation was identified in the HNSCC cell line SNU1076. DTX3L is an E3 ubiquitin ligase. Its cellular function in the mammalian Notch pathway is not clear, but its Drosophila homologue Deltex is a positive regulator of Notch signaling in Drosophila. […] Loss of DTX3L may provide an alternative mechanism to inactivate the Notch signaling pathway with subsequent activation of Wnt signaling.

[5] = tested on: HN30 cells; assay: Wnt-dependent AXIN2 message production in HN30 (TaqMan); type: cell-based; conditions: Homo sapiens; HN30, 48 hours
Procedure: as §1, §2

[6] = tested on: HN30 tumors; assay: Mouse subcutaneous xenograft model of HNSCC HN30, anti-tumor activity; type: in vivo
Procedure: (§4) Nude mice bearing HN30 tumors were randomized according to tumor volume. […] Body weight was monitored daily and tumor sizes were assessed three times a week once tumors were palpable. Tumor sizes were determined by using caliper measurements. Tumor volumes were calculated with a formula (Length×Width×Height)/2. […] Blood sample (50 μL) was collected by serial retroorbital sampling at 1, 3, 7, 16 and 24 hours post-dose. The blood samples were centrifuged and plasma separated and frozen until analysis by LC/MS/MS.
Changes in tumor weight for each treated (T) and control (C) groups were measured and used to calculate growth delay as expressed by the T/C ratio. […] A similar result was obtained when dosed twice a day in this model with −44% T/C at a dose of 0.5 mg/kg twice a day.

[7] = tested on: Wnt1, 2, 3, 3A, 6, 7A, and 9A; assay: Wnt dependent STF reporter assays with a set of canonical Wnts; type: cell-based
Description: as §3

[8] = tested on: cells; assay: Cytotoxicity in cells; type: cell-based; conditions: up to 20 μM
Description: as §3

[9] = tested on: Wnt signaling; assay: Wnt co-culture reporter gene assay (TM3 Wnt-Luc cells with L-cell Wnt3A cells); type: cell-based, mouse
Procedure: Reporter gene assay: Mouse Leydig cell TM3 cells (obtained from American Type Culture Collection, ATCC, Manassas, Va.) are cultured in 1:1 mixture of Ham's F12 medium and Dulbecco's modified Eagle's medium (Gibco/Invitrogen, Carlsbad, Calif.) supplemented with 2.5% FBS (Gibco/Invitrogen, Carlsbad, Calif.) and 5% horse serum (Gibco/Invitrogen, Carlsbad, Calif.), 50 unit/mL penicillin and 50 μg/mL of streptomycin (Gibco/Invitrogen, Carlsbad, Calif.) at 37° C. with 5% CO2 in air atmosphere. TM3 cells in a 10 cm dish are co-transfected with 8 μg of STF-reporter plasmid containing a luciferase gene driven by Wnt-responsive elements and 2 μg of pcDNA3.1-Neo (Gibco/Invitrogen, Carlsbad, Calif.) with 30 μL of FuGENE6 (Roche Diagnostics, Indianapolis, Ind.) following the manufacturer's protocol. Stable cell lines (TM3 Wnt-Luc) were selected with 400 μg/mL of G418 (Gibco/Invitrogen, Carlsbad, Calif.). […]

[10] = Plasma concentrations in tumor bearing nude mice; type: in vivo, mouse; conditions: single dose 3 mg/kg
Procedure: as §4

[11] = tested on: HN30 cells; assay: HN30 colony formation assay; type: cell-based, human; conditions: in vitro, crystal violet one week later
Procedure: In order to correlate the pathway inhibition with cellular function, the human HNSCC cell line HN30 was used for further in vitro and in vivo characterization. For colony formation assay, 2×10^3 cells per well were plated into 6-well cell culture plates with or without compound treatment. Cells were stained with crystal violet one week later.

[12] = tested on: Wnt3A secretion; assay: HA-Wnt3A secretion in transfected 293A cells; type: cell-based; conditions: 293A cells transfected with HA-Wnt3A, various doses; lysate HA-Wnt3A spared
Description: as §3

Cc1cc(-c2ncc(CC(=O)Nc3ccc(-c4cnccn4)cn3)cc2C)ccn1 [COMPOUND A, 2-[5-methyl-6-(2-methylpyridin-4-yl)pyridin-3-yl]-N-[5-(pyrazin-2-yl)pyridin-2-yl]acetamide]
cell lines harbouring HRAS mutations that responded ([1]; head and neck cancer cell lines): 4 of 5 | HNSCC cell lines showing pathway inhibition ([1]; responsive = greater than 50% AXIN2 mRNA reduction after 10-100 nM for 48 hours): 31 out of 96 | Wnt dependent phosphorylation of LRP6 [2]: strongly blocked | time of maximum effect on pLRP6 ([3]; HN30 tumors): 7-10 hours post dose | downregulation for LEF1 ([3]; HN30 xenograft): 84% | downregulation for NKD1 ([3]; HN30 xenograft): 67% | time of maximum AXIN2 mRNA inhibition ([3]; single dose 3 mg/kg): 10 h | reduction of AXIN2 mRNA expression in tumors ([3]; single dose 3 mg/kg, between 5 and 10 hours post dose): 60-95% | pLRP6 levels in the HN30 tumors ([3]; time dependent, largely back to normal by 24 hours): substantially reduced | T/C ([4]; 14 days of treatment): 25% | reduction of AXIN2 ([4]; SNU1076 xenograft): 70% | IC50 [5]: 0.3 nM | T/C ([6]; 0.1 mg/kg once a day, oral gavage, 14 days): 69% | T/C ([6]; 0.3 mg/kg once a day, oral gavage, 14 days): 26% | T/C ([6]; 0.5 mg/kg twice a day): −44% | T/C ([6]; 1.0 mg/kg once a day, oral gavage, 14 days): −31% | T/C ([6]; 3.0 mg/kg once a day, oral gavage, 14 days): −50% | animal body weight loss ([6]; 0.1-3.0 mg/kg once a day, 14 days): no significant animal body weight loss | inhibitory activities against canonical Wnts in STF reporter assays [7]: comparable inhibitory activities against all tested Wnts | cytotoxicity in cells [8]: no major cytotoxicity | IC50 ([9]; Mus musculus, luciferase reporter, 24 hours, read-out: IC50 of Wnt signaling inhibition in Wnt co-culture assay): 0.4 nM | inhibitory effect after addition of exogenous Wnt3A conditioned medium ([9]; Wnt co-culture assay): rescued | time of peak drug concentration [10]: 1 h | HN30 colony formation [11]: strongly attenuated | abundance of HA-Wnt3A in the supernatant [12]: potently attenuated
